Test results published in publication PMC7352342, “Inhibition of Patched Drug Efflux Increases Vemurafenib Effectiveness against Resistant Braf^V600E Melanoma” (Cancers, 2020).
Like-named read-outs stand apart in the source and are kept apart here.

Key:
[1] = Cytotoxicity assay (neutral red), MeWo cells; assay type: cell-based, human; conditions: human, MeWo melanoma cells, MeWo; 24 or 48 h; read-out: sPAH-IC50 (cytotoxicity of sPAH alone)
Method: (§1) Human melanoma cell lines A375 and MeWo were purchased from ATCC, and cultured in DMEM medium supplemented with 10% fetal bovine serum and penicillin/streptomycin (Invitrogen) at 37 °C in a 5% CO2/95% water-saturated air atmosphere. Melanoma cell lines SKMEL 28, SKMEL V3, WM9S, and WM9R were provided by Robert Ballotti (C3M, Nice, France). MeWo-dxrR cells were obtained by adding increasing concentrations of doxorubicin, up to 0.2 µM, in the culture medium over 6 months. These cells were grown in medium supplemented with 0.2 µM dxr. WM9R cells were obtained by adding increasing concentrations of vemurafenib, up to 5 µM, in the culture medium over 6 months. These cells were grown in medium supplemented with 5 µM vemurafenib. HEK cells were grown in 75 mm tissue culture dishes (Falcon, Franklin Lakes, NJ, USA) in Dulbecco’s modified Eagle’s medium (Gibco, Life Technologies, Saint Aubin, France) supplemented with 10% fetal calf serum (Hyclone, Thermo Fisher Scientific GMBH, Ulm, Germany) and 1% penicillin/streptomycin (Gibco, Life Technologies, Saint Aubin, France) in a humidified incubator at 37 °C (5% CO2).
(§2) Cells were seeded in 96-well plates in triplicate and grown in medium to achieve 70 to 80% confluence. Medium was then removed and replaced with 100 µL/well of complete medium containing PAH or DMSO as a control. After 2 h, 100 µL of complete medium containing serial dilutions of dxr, cisplatin or vemurafenib were added. Plates were incubated at 37 °C and 5% CO2. After 24 or 48 h, cells were incubated for 3 h at 37 °C with 100 µL/well neutral red (NR) solution (50 µg/mL in medium) following the manufacturer’s protocol. Measurements were made in microplate readers (Multiskan Go Microplate Spectrophotometer from Thermo Scientific).

[2] = system: MeWo cells; experiment: Cytotoxicity assay (neutral red), MeWo cells; assay type: cell-based, human
Method: as §1, §2

[3] = Cytotoxicity assay (neutral red), WM9S cells; assay type: cell-based; conditions: human, WM9S melanoma cells; read-out: sPAH-IC50 (cytotoxicity of sPAH alone)
Method: as §1
(§3) Cells were seeded in 96-well plates in triplicate and grown in medium to achieve 70 to 80% confluence. […] Measurements were made in microplate readers (Multiskan Go Microplate Spectrophotometer from Thermo Scientific).

[4] = system: WM9S cells; experiment: Cytotoxicity assay (neutral red), WM9S cells; assay type: cell-based; conditions: WM9S; 24 h; sPAH between 10 and 20 µM
Method: as §1, §3

[5] = system: A375 cells; experiment: BODIPY-cholesterol efflux measurement, A375 cells; assay type: cell-based, human; conditions: sPAH in efflux buffer, 30 min
[6] = molecular target: T1, human Smoothened (Homo sapiens, UniProt Q99835); experiment: Microscale thermophoresis on membranes from yeast expressing human Smoothened; assay type: binding; conditions: MST; sPAH 15 nM to 250 µM
T1 construct: made in house; host or cells: yeast (membrane preparation)
T1 sequence (Q99835 28-787): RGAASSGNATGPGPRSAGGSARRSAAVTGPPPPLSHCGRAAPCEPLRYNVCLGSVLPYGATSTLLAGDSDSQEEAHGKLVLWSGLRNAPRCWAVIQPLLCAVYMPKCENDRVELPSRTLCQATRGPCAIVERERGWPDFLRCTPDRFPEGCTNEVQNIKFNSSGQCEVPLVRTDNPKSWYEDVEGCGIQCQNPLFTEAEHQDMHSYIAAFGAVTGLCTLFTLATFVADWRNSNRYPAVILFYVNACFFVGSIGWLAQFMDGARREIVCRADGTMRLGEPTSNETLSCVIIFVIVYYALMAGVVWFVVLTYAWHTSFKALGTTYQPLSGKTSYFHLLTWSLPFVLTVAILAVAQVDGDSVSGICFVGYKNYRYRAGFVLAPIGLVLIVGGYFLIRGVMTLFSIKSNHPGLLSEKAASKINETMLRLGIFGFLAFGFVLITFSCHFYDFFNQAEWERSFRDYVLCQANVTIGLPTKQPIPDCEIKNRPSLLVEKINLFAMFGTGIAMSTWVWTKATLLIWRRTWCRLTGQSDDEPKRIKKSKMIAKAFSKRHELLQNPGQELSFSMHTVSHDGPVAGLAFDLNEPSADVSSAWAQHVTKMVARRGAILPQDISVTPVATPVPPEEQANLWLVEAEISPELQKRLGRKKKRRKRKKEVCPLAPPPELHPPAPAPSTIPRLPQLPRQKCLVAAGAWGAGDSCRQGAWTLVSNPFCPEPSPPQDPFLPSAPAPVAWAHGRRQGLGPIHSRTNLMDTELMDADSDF
Method: Microscale thermophoresis (MST) is a biophysical technique that measures the strength of the interaction between two molecules by detecting a variation in the fluorescence signal of a fluorescently labeled target as a result of an IR-laser induced temperature change. The range of the variation in the fluorescence signal correlates with the binding of a ligand to the fluorescent target.
Membranes from yeast expressing human Ptch1 or human Smoothened were incubated at 30 µg/mL with 20 nM of the fluorescent dye NT-647 2nd gen (NanoTemper Technologies, München, Germany) to label the His-tag present at the c-terminus of both proteins. […] The fluorescence within the capillary is excited and detected through the same objective. […] The MST response of fluorescent proteins within the temperature gradient is detected. After activation of the IR laser, a decrease in fluorescence is observed which corresponds to temperature-related intensity change (TRIC) triggered by the fast temperature change and thermophoretic movement of the fluorescent proteins out of the heated sample volume. […] For analysis, the change in MST signal is expressed as the change in the normalized fluorescence (Fnorm), which is defined as F1/F0. […] The sPAH Kd was determined for 3 independent experiments.

[7] = Metabolic stability with mice liver microsomes and NADPH; assay type: in vitro ADME
Method: A 10 µL aliquot of the sPAH stock solution (10 mM in DMSO) was diluted in 990 µL of a mixture of acetonitrile and water. This solution was then diluted 100-fold in phosphate buffer containing mice liver microsomes (0.5 mg/mL), 1 mM NADPH, and 3 mM MgCl2, and incubated at 37 °C. After 2, 10, 20, 40, and 60 min, 70 µL aliquots were collected and mixed with 70 µL acetonitrile at 0 °C. Equivalent experiments were performed without NADPH in order to identify chemical instability or enzymatic process not depending on NADPH, and with testosterone as a positive control. The enzymatic reaction was stopped by addition of acetonitrile. Samples were analyzed by LC–MS/MS on an UHPLC LC–MS 8030 (Shimazu, Kyoto, Japan).
For metabolite identification, 50 µM of sPAH were incubated with mice liver microsomes and NADPH. Two samples were prepared: one in which acetonitrile was added immediately (t0) and one in which acetonitrile was added after 30 min. After centrifugation for 5 min at 15,000× g, 2 samples of each supernatant were analyzed by LC–MS/MS on a LC–MS 8030 (Shimazu, Kyoto, Japan) and detected by selected ion monitoring (SIM).

For COc1cc(C)c(CC/C(C)=C/Cc2cc(O)ccc2O)c(C)c1C [sPAH, Panicein A hydroquinone], the IC50 [1] was 36 ± 2.3 µM, the IC50 ([2]; MeWo cells, 2 µM Dxr present, listed as Synthetic PAH, read-out: IC50 of PAH at 2 µM Dxr) was 8.1 ± 1.3 µM and the IC50 ([2]; MeWo, 24 or 48 h, read-out: sPAH-IC50 (cytotoxicity of sPAH alone)) was roughly 40 µM. The “IC50 of cisplatin in the presence of sPAH” value ([2]; MeWo, sPAH 20 µM vs DMSO (Figure S2)) was “significantly decreased”, the IC50 [3] was 28.6 ± 5.1 µM and the “sensitivity of cells to vemurafenib in the presence of sPAH” value [4] was “significantly increased”. The “efflux of BODIPY-cholesterol” value [5] was “inhibited the efflux of cholesterol”, the “binding to membranes from yeast expressing Smoothened” value [6] was “does not bind” and the “metabolic fate (LC-MS/MS)” value ([7]; 50 µM, mice liver microsomes and NADPH, 30 min) was “rapidly oxidized in its quinone form”. The half-life at 1 µM ([7]; mouse, liver microsomes, mice microsomes and NADPH, 37 °C) was 1 min.
